Test systems include BT-549; PC-3; NCI/ADR-RES; TK-10; MDA-MB-231; NCI-H460; MDA-N; SW-620; A549; SR; DU-145; UACC-257; HOP-62; SNB-19; MDA-MB-435; SK-MEL-2.
What all share (assay): NCI tumour cell line growth inhibition, 48 h

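These data come from cells grown in 96-well plates and exposed to compound for 48 hours at five concentrations. Here, GI50 denotes the concentration required for 50% inhibition of growth.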 Active and inactive are the calls of the source. Rule as the data show it: active = GI50 up to about 1.1 µM and inactive = higher.

With `CC(=O)NC1CC(C(C)(C)NC(C)=O)CC=C1C` (stereo unspecified), the GI50 with BT-549, in the experiment with PC-3, in the experiment with NCI/ADR-RES, with TK-10, in the experiment on MDA-MB-231 and with NCI-H460 was > 100 µM (inactive) in each case. Moreover, the GI50 in the experiment on MDA-N, in the experiment on SW-620, with A549, with SR, in the experiment with DU-145 and with UACC-257 was > 100 µM (inactive) in each case. Also, the GI50 with HOP-62, with SNB-19 and with MDA-MB-435 was > 100 µM (inactive) throughout.

As for `O=C1C(=CNC(=S)c2ccccc2)C(=O)c2ccccc21`, the GI50 in the experiment with BT-549 is 28.1 µM (inactive); in the experiment with PC-3, 63.2 µM (inactive); in the experiment on NCI/ADR-RES, 61.5 µM (inactive); in the experiment with TK-10, 41.6 µM (inactive); with MDA-MB-231 it was 55.2 µM (inactive); in the experiment on NCI-H460, 70.8 µM (inactive). Besides, the GI50 in the experiment on MDA-N was 52.7 µM (inactive); in the experiment with SW-620 it was 55.8 µM (inactive); with A549, 67.5 µM (inactive); with DU-145 it was 57.8 µM (inactive); in the experiment with UACC-257 it was 55.1 µM (inactive); in the experiment on HOP-62, 91.8 µM (inactive). The GI50 is 93.8 µM (inactive) with SNB-19, 71.8 µM (inactive) with MDA-MB-435 and 39.5 µM (inactive) in the experiment on SK-MEL-2.

For the molecule `O=C1C=CC2(O[C@@H](Cc3ccccc3)[C@H](Cc3ccccc3)O2)C(SC(=O)c2ccccc2)C1` (stereo partly specified), the GI50 in the experiment with BT-549 is 0.34 µM (active); in the experiment on PC-3, 1.53 µM (inactive); with NCI/ADR-RES, 1.07 µM (active); in the experiment with TK-10, 1.54 µM (inactive); in the experiment with MDA-MB-231, 2.52 µM (inactive); in the experiment with NCI-H460 it was 2.59 µM (inactive). Moreover, the GI50 with MDA-N was 0.853 µM (active); with SW-620 it was 0.231 µM (active); in the experiment with A549 it was 4.22 µM (inactive); in the experiment on SR, 0.138 µM (active); in the experiment with DU-145, 2.39 µM (inactive); in the experiment on UACC-257, 1.18 µM (inactive). For the same molecule, the GI50 in the experiment with HOP-62 is 1.11 µM (active); with SNB-19 it was 1.94 µM (inactive); in the experiment on MDA-MB-435, 2.11 µM (inactive); in the experiment on SK-MEL-2, 1.66 µM (inactive).

For the molecule `CCOc1cc2c(cc1O)C(O)C[C@@H]1[C@@H]2CC[C@]2(C)[C@@H](O)CC[C@@H]12` (stereo partly specified), the GI50 with BT-549 was 39.1 µM (inactive); in the experiment on PC-3 it was 3.44 µM (inactive); with NCI/ADR-RES, 0.279 µM (active); in the experiment on TK-10, 0.661 µM (active); in the experiment with MDA-MB-231 it was 1.25 µM (inactive); with NCI-H460, 0.265 µM (active). The GI50 in the experiment with MDA-N is 0.0459 µM (active); with SW-620, 0.317 µM (active); in the experiment with A549 it was 0.231 µM (active); in the experiment on SR, 4.94 µM (inactive); in the experiment on DU-145, 0.59 µM (active); in the experiment on UACC-257, 0.444 µM (active). Besides, the GI50 with HOP-62 was 0.675 µM (active); with SNB-19, 0.465 µM (active); in the experiment on MDA-MB-435, 0.033 µM (active); in the experiment on SK-MEL-2 it was > 100 µM (inactive).

On to `O=C1N[C@@H]([C@H](CCCCCO)OC(=O)c2ccccc2)CO1`, for which the GI50 in the experiment with BT-549 is > 100 µM (inactive); in the experiment on PC-3, > 100 µM (inactive); in the experiment with NCI/ADR-RES, > 100 µM (inactive); with TK-10, > 100 µM (inactive); with MDA-MB-231, 3.18 µM (inactive); in the experiment on NCI-H460 it was > 100 µM (inactive). The GI50 with MDA-N, in the experiment on SW-620, in the experiment on A549, in the experiment with SR, in the experiment with DU-145 and in the experiment with UACC-257 was > 100 µM (inactive) each time. For the same molecule, the GI50 in the experiment on HOP-62, with SNB-19, in the experiment with MDA-MB-435 and in the experiment on SK-MEL-2 was > 100 µM (inactive) in each case.

With `CC(=O)O[C@H]1[C@@H](OC(C)=O)C(C)(C)/C=C/[C@H](C)C(=O)[C@@]2(OC(C)=O)C[C@@](C)(OC(C)=O)[C@H](OC(C)=O)[C@@H]2[C@H]2OC(=O)CC[C@@]2(OC(=O)c2ccccc2)[C@@H]1OCC(C)C`, the GI50 was 67.6 µM (inactive) with BT-549; 17.5 µM (inactive) in the experiment with PC-3; 69 µM (inactive) with NCI/ADR-RES; 3.61 µM (inactive) in the experiment with TK-10; > 100 µM (inactive) in the experiment on MDA-MB-231; 4.1 µM (inactive) in the experiment on NCI-H460. Moreover, the GI50 in the experiment on MDA-N was 7.11 µM (inactive); with SW-620 it was 10.7 µM (inactive); in the experiment on DU-145 it was 97.3 µM (inactive); in the experiment with UACC-257, 85.1 µM (inactive); in the experiment with HOP-62, 6.04 µM (inactive); in the experiment on SNB-19 it was > 100 µM (inactive). For the same molecule, the GI50 was 8.39 µM (inactive) in the experiment with MDA-MB-435 and > 100 µM (inactive) in the experiment on SK-MEL-2.

As to `CC12Nc3ccccc3N1C(=O)c1ccccc12` (stereo unspecified), the GI50 with BT-549, in the experiment with PC-3, with NCI/ADR-RES, with TK-10, in the experiment on MDA-MB-231 and in the experiment on NCI-H460 was > 100 µM (inactive) in each case. The GI50 was > 100 µM (inactive) in the experiment on MDA-N; > 100 µM (inactive) in the experiment with SW-620; > 100 µM (inactive) in the experiment on A549; > 100 µM (inactive) in the experiment on SR; 88.1 µM (inactive) in the experiment with DU-145; > 100 µM (inactive) with UACC-257. Besides, the GI50 in the experiment with HOP-62, in the experiment on SNB-19, in the experiment with MDA-MB-435 and with SK-MEL-2 was > 100 µM (inactive) each time.

For the molecule `C=C1C(=O)OC2/C=C(\C)CC/C=C(/C)CC(OC(=O)/C(=C/CO)CO)C12` (stereo unspecified), the GI50 in the experiment on BT-549 was 14.3 µM (inactive); in the experiment with PC-3 it was > 100 µM (inactive); in the experiment on NCI/ADR-RES, 32.6 µM (inactive); in the experiment on TK-10, 15.7 µM (inactive); in the experiment on MDA-MB-231, > 10 µM (inactive); in the experiment on NCI-H460 it was 64.3 µM (inactive). Also, the GI50 with MDA-N is 20.5 µM (inactive); in the experiment with SW-620 it was 21.4 µM (inactive); with A549 it was 66.2 µM (inactive); with SR it was 28.6 µM (inactive); in the experiment with DU-145, 17.5 µM (inactive); with UACC-257, 16.4 µM (inactive). In addition, the GI50 with HOP-62 is > 100 µM (inactive); with SNB-19, 65 µM (inactive); with MDA-MB-435, 27.8 µM (inactive); in the experiment with SK-MEL-2, 25 µM (inactive).

With `CC1C(NNC(N)=O)Oc2cc3c(cc2C1c1ccccc1O)OCO3` (stereo unspecified), the GI50 with BT-549 is 52.6 µM (inactive); with PC-3, 24.5 µM (inactive); in the experiment on TK-10, 46 µM (inactive); in the experiment on MDA-MB-231, 55.7 µM (inactive); with NCI-H460, 38.8 µM (inactive); in the experiment on MDA-N, 22.3 µM (inactive). The GI50 in the experiment on SW-620 is 16.6 µM (inactive); in the experiment with A549, 31.8 µM (inactive); with SR, 15 µM (inactive); in the experiment with DU-145, 49.7 µM (inactive); in the experiment with UACC-257 it was 35.7 µM (inactive); in the experiment with HOP-62, 31.3 µM (inactive). Besides, the values for the GI50 in the experiment on SNB-19, in the experiment with MDA-MB-435 and in the experiment on SK-MEL-2 were 91 µM (inactive), 20.5 µM (inactive) and 35.6 µM (inactive), respectively.

Regarding `Cc1cc2nc3c(C)c4ccccc4c(C)n3c2cc1C`, the GI50 is 6.07 µM (inactive) in the experiment with BT-549; 2.96 µM (inactive) in the experiment on PC-3; 1.51 µM (inactive) with NCI/ADR-RES; 5.27 µM (inactive) with TK-10; 1.62 µM (inactive) in the experiment with MDA-MB-231; 1.79 µM (inactive) with NCI-H460. Besides, the GI50 with MDA-N was 1.89 µM (inactive); in the experiment with SW-620, 2.49 µM (inactive); in the experiment with A549, 3.9 µM (inactive); in the experiment on SR it was 2.96 µM (inactive); in the experiment with DU-145, 3.3 µM (inactive); in the experiment with UACC-257, 3.36 µM (inactive). The GI50 with HOP-62 was 2.19 µM (inactive); in the experiment with SNB-19, 4.02 µM (inactive); with MDA-MB-435 it was 3.02 µM (inactive); in the experiment with SK-MEL-2, 3.66 µM (inactive).

As to `[C-]#[N+]C(=C\c1ccc(O)cc1)/C(=C/c1ccc(O)cc1)[N+]#[C-]` [XANTOCILLIN], the GI50 was 2.41 µM (inactive) in the experiment on BT-549; 3.65 µM (inactive) in the experiment with PC-3; 2.44 µM (inactive) with NCI/ADR-RES; 3.01 µM (inactive) with TK-10; 2.74 µM (inactive) in the experiment with MDA-MB-231; 2.42 µM (inactive) with NCI-H460. Further, the GI50 is 1.47 µM (inactive) with MDA-N; 1.14 µM (inactive) with SW-620; 5.94 µM (inactive) in the experiment on A549; 1.67 µM (inactive) in the experiment with SR; 2.53 µM (inactive) in the experiment on DU-145; 2.53 µM (inactive) in the experiment with UACC-257. Further, the GI50 was 3.21 µM (inactive) with HOP-62, 2.55 µM (inactive) in the experiment with SNB-19, 1.28 µM (inactive) in the experiment with MDA-MB-435 and 2.07 µM (inactive) with SK-MEL-2.

Consider `O=C1CC2(CCC(O)(c3ccco3)C(C(=O)c3ccco3)C2)C(=O)c2ccccc2N1` (stereo unspecified), for which the GI50 in the experiment on BT-549 was 92 µM (inactive); in the experiment on PC-3, 54 µM (inactive); in the experiment with NCI/ADR-RES it was 64.6 µM (inactive); in the experiment on TK-10 it was > 100 µM (inactive); with MDA-MB-231, > 100 µM (inactive); with NCI-H460 it was 29.5 µM (inactive). Also, the GI50 with MDA-N, in the experiment with SW-620, in the experiment on A549, in the experiment with SR, with DU-145 and in the experiment on UACC-257 was > 100 µM (inactive) throughout. Besides, the GI50 in the experiment on HOP-62, in the experiment with MDA-MB-435 and with SK-MEL-2 was > 100 µM (inactive) throughout.

The record behind these values is ChEMBL document CHEMBL1201862, “PubChem BioAssay data set” (2004).
